Assay results: patent US20040254213A1, “Use of bicyclo compounds for treating alzheimer's disease” (priority 2001, published 2004)

melting point [°C] | SMILES
138 to 141 | CC(C)CN1CC2(Cc3ccccc3)CC(=O)CC(C(O)Cc3ccccc3)(C1)C2O (racemic) [Compound 16, 5(RS)-methylphenyl-9(RS)-hydroxy-1(RS)-((1′-hydroxy)-2′-phenyl)-ethyl-3-(2″-methyl)propyl-3-azabicyclo[3.3.1] nonan-7-one]
145.5 to 147 | O=C1CC2(Cc3ccccc3)CN(Cc3ccccc3)CC([C@@H](O)Cc3ccccc3)(C1)C2O (mixture of isomers) [Compound 18, 5(RS)-methylpheny-9(RS)-hydroxy-1(RS)-((1′-hydroxy)-2′-phenyl)-ethyl-3-benzyl-3-azabicyclo[3.3.1]nonan-7-one]
164 to 165 | CC(C)CN1CC2(Cc3ccccc3)CC(=O)CC([C@@H](O)Cc3ccccc3N)(C1)C2O (mixture of isomers) [Compound 20]
